Reference: patent US20260014285A1, “POLYPEPTIDE COMPOUND, AND COMPLEX AND USE THEREOF” (HANGZHOU HEALTHYTIDE BIOTECHNOLOGY CO., LTD., priority 2022, published 2026)
Non-standard residues stand in square brackets, D forms with d. Residues, ends and D or L forms follow the SMILES beside them. ξ: configuration not given here. *: point of attachment. DOTA = O=C(O)CN1CCN(CC(=O)O)CCN(CC(=O)*)CCN(CC(=O)O)CC1; NOTA = O=C(O)CN1CCN(CC(=O)O)CCN(CC(=O)*)CC1; PEG4 = NCCOCCOCCOCCOCCC(=O)O; ξIle = CC[C@H](C)C(N)C(=O)O; Aib = CC(C)(N)C(=O)O; AEA = NCCOCC(=O)O

Legend:
in vivo [1] = assay: in vivo; set-up: species or system mice; conditions: naked (nude), mouse, iv, 100 uCi, total radioactivity
Protocol: (§1) For example, labeling TM4 with radioactive ^68Ga: An aqueous solution of TM4 (DOTA-Asn-Asp-Val-Ile-Asn-OH) (20 μg) was added to the prepared ^68GaCl3 solution, and the pH was adjusted to 3-5 with aqueous sodium acetate and acetic acid. This system was reacted at 70-95° C. for 15 min, and then purified after the reaction was completed to obtain a labeled solution of ^68Ga-DOTA-Asn-Asp-Val-Ile-Asn-OH (^68Ga-TM4).
(§2) All compounds were labeled with ^68Ga in the same way as described above.
Approximately 100 μCi of ^68Ga injection was injected into the tail vein of naked mice inoculated with MC38.

in vivo [2] = assay: in vivo; set-up: species or system mice; conditions: M-NSG, mouse, iv, 100 uCi, total radioactivity
Protocol: as §1, §2
Approximately 100 μCi of ^68Ga injection was injected into the tail vein of M-NSG mice inoculated with H1975. […] Table 6 was obtained by image post-processing.

in vivo [3] = assay: in vivo; set-up: species or system mice; conditions: naked (nude), mouse, iv, 100 uCi, total radioactivity; remark: listed apart in the source
Protocol: as §1, §2
Approximately 100 μCi of ^68Ga injection was injected into the tail vein of naked mice inoculated with SKOV3.

integrin α5β1 = integrin α5β1 (Homo sapiens, UniProt P05556+P08648); assay: Target affinity test by surface plasmon resonance (SPR), integrin α5β1; type: binding; conditions: for Kd: SPR (Biacore T200), CM5 chip, 25° C., KD=Kd/Ka
Protocol: Surface plasmon resonance (SPR) technique was used to test the affinity of the compound in the examples to the target protein integrin α5β1. Specifically, the following operations were performed.
The affinity constants (KD) of the compounds to the target proteins integrin α5β1, αvβ3, and αvβ5 were calculated according to the formula of KD=Kd/Ka (the lower the value of KD, the higher the affinity of the compounds of the examples to the target protein integrin α5β1).

Sequence of integrin α5β1 (P08648 42-995 limits assumed): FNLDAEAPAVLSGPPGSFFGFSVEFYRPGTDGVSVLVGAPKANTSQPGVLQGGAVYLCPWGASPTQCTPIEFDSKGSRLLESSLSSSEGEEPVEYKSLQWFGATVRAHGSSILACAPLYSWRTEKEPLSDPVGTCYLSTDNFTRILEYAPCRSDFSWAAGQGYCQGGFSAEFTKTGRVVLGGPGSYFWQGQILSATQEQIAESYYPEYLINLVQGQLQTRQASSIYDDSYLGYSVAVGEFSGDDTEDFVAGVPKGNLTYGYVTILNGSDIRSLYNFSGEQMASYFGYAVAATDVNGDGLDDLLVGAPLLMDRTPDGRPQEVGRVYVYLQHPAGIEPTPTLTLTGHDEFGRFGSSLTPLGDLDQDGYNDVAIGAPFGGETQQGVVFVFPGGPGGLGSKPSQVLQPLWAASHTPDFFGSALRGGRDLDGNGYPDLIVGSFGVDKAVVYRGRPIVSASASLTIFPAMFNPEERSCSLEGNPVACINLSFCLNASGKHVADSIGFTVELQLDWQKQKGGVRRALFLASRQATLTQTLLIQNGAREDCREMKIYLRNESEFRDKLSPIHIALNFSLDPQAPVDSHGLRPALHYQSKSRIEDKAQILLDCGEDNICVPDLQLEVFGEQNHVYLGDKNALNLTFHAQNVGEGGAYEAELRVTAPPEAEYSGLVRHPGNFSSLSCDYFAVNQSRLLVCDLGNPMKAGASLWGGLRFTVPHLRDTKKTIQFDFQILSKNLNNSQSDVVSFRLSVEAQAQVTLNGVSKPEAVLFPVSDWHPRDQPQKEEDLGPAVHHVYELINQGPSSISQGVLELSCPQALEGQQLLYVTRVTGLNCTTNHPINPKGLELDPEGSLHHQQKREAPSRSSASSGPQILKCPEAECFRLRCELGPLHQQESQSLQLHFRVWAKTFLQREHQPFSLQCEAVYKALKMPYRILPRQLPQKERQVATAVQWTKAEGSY
Sequence of integrin α5β1 (P05556 21-728 limits assumed): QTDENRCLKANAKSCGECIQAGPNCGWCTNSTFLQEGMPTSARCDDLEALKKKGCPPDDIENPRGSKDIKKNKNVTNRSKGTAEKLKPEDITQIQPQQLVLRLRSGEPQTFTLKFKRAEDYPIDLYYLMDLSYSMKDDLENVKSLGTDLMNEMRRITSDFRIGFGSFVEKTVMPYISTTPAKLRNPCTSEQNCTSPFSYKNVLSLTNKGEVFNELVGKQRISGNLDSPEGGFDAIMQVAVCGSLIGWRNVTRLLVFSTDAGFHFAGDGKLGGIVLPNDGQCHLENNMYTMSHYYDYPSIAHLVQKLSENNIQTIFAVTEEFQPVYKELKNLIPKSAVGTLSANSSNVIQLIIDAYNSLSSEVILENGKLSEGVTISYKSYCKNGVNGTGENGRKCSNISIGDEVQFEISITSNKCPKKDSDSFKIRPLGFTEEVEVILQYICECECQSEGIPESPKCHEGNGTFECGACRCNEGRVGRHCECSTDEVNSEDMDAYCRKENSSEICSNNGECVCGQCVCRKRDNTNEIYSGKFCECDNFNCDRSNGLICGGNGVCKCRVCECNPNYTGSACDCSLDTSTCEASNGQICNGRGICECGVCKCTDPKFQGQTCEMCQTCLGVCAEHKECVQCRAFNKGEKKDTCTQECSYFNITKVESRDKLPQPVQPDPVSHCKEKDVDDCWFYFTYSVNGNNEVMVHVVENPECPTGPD

CC[C@H](C)[C@H](NC(=O)C(C)(C)NC(=O)[C@H](CC(=O)O)NC(=O)[C@H](CC(N)=O)NC(=O)CN1CCN(CC(=O)O)CCN(CC(=O)O)CCN(CC(=O)O)CC1)C(=O)N[C@@H](CC(N)=O)C(=O)O [^68Ga-TM11, metal not drawn] ({DOTA}-ND[Aib]IN-OH)
tissue uptake at 1 h (in vivo [1]; % ID/g Bladder): 18.9 %ID/g
tissue uptake at 1 h (in vivo [1]; % ID/g Bone): 0.08 %ID/g
tissue uptake at 1 h (in vivo [1]; % ID/g Brain): 0.18 %ID/g
tissue uptake at 1 h (in vivo [1]; % ID/g Heart): 0.25 %ID/g
tissue uptake at 1 h (in vivo [1]; % ID/g Intestine): 0.59 %ID/g
tissue uptake at 1 h (in vivo [1]; % ID/g Kidney): 1.2 %ID/g
tissue uptake at 1 h (in vivo [1]; % ID/g Liver): 0.29 %ID/g
tissue uptake at 1 h (in vivo [1]; % ID/g Lung): 0.15 %ID/g
tissue uptake at 1 h (in vivo [1]; % ID/g Muscle): 0.08 %ID/g
tissue uptake at 1 h (in vivo [1]; % ID/g Tumor): 0.73 %ID/g
tissue uptake at 1 h (in vivo [2]; % ID/g Bone): 0.27 %ID/g
tissue uptake at 1 h (in vivo [2]; % ID/g Brain): 0.21 %ID/g
tissue uptake at 1 h (in vivo [2]; % ID/g Heart): 0.53 %ID/g
tissue uptake at 1 h (in vivo [2]; % ID/g Intestine): 0.5 %ID/g
tissue uptake at 1 h (in vivo [2]; % ID/g Kidney): 4 %ID/g
tissue uptake at 1 h (in vivo [2]; % ID/g Liver): 0.43 %ID/g
tissue uptake at 1 h (in vivo [2]; % ID/g Lung): 0.31 %ID/g
tissue uptake at 1 h (in vivo [2]; % ID/g Muscle): 0.31 %ID/g
tissue uptake at 1 h (in vivo [2]; % ID/g Tumor): 0.94 %ID/g
tissue uptake at 1 h (in vivo [3]; % ID/g Bladder): 4.7 %ID/g
tissue uptake at 1 h (in vivo [3]; % ID/g Bone): 0.04 %ID/g
tissue uptake at 1 h (in vivo [3]; % ID/g Brain): 0.09 %ID/g
tissue uptake at 1 h (in vivo [3]; % ID/g Heart): 0.11 %ID/g
tissue uptake at 1 h (in vivo [3]; % ID/g Intestine): 0.33 %ID/g
tissue uptake at 1 h (in vivo [3]; % ID/g Kidney): 0.52 %ID/g
tissue uptake at 1 h (in vivo [3]; % ID/g Liver): 0.15 %ID/g
tissue uptake at 1 h (in vivo [3]; % ID/g Lung): 0.08 %ID/g
tissue uptake at 1 h (in vivo [3]; % ID/g Muscle): 0.05 %ID/g
tissue uptake at 1 h (in vivo [3]; % ID/g Tumor): 0.42 %ID/g

CC[C@H](C)[C@H](NC(=O)[C@@H](NC(=O)[C@H](CC(=O)O)NC(=O)[C@H](CC(N)=O)NC(=O)[C@H](CC(=O)O)NC(=O)CNC(=O)[C@H](CCCNC(=N)N)NC(=O)CCOCCOCCOCCOCCNC(=O)CN1CCN(CC(=O)O)CCN(CC(=O)O)CCN(CC(=O)O)CC1)C(C)C)C(=O)N[C@@H](CC(N)=O)C(=O)O [^68Ga-TM7, metal not drawn] ({DOTA-PEG4}-RGDNDVIN-OH)
tissue uptake at 1 h (in vivo [2]; % ID/g Bone): 0.24 %ID/g
tissue uptake at 1 h (in vivo [2]; % ID/g Brain): 0.24 %ID/g
tissue uptake at 1 h (in vivo [2]; % ID/g Heart): 0.5 %ID/g
tissue uptake at 1 h (in vivo [2]; % ID/g Intestine): 0.45 %ID/g
tissue uptake at 1 h (in vivo [2]; % ID/g Kidney): 64.5 %ID/g
tissue uptake at 1 h (in vivo [2]; % ID/g Liver): 0.53 %ID/g
tissue uptake at 1 h (in vivo [2]; % ID/g Lung): 0.3 %ID/g
tissue uptake at 1 h (in vivo [2]; % ID/g Muscle): 0.28 %ID/g
tissue uptake at 1 h (in vivo [2]; % ID/g Tumor): 0.75 %ID/g

CC[C@H](C)C(NC(=O)[C@@H](NC(=O)[C@H](CC(=O)O)NC(=O)[C@H](CC(=O)O)NC(=O)CNC(=O)[C@H](CCCNC(=N)N)NC(=O)CN1CCN(CC(=O)O)CCN(CC(=O)O)CC1)C(C)C)C(=O)N[C@@H](CC(N)=O)C(=O)N[C@@H](Cc1ccccc1)C(=O)O (some centres unmarked) [TM3] ({NOTA}-RGDDV[ξIle]NF-OH)
affinity constant (KD) to integrin α5β1, in words (integrin α5β1; SPR): better than nM level
Kd (integrin α5β1): 1.92 nM

CC[C@H](C)[C@H](NC(=O)[C@@H](NC(=O)[C@H](CC(=O)O)NC(=O)[C@H](CC(N)=O)NC(=O)[C@H](CC(=O)O)NC(=O)CNC(=O)[C@H](CCCNC(=N)N)NC(=O)CCOCCOCCOCCOCCNC(=O)CN1CCN(CC(=O)O)CCN(CC(=O)O)CCN(CC(=O)O)CC1)C(C)C)C(=O)N[C@@H](CC(N)=O)C(=O)O [TM7] ({DOTA-PEG4}-RGDNDVIN-OH)
Kd (integrin α5β1): 43.9 nM

CC[C@H](C)[C@H](NC(=O)[C@@H](NC(=O)[C@H](CC(=O)O)NC(=O)[C@H](CC(N)=O)NC(=O)CCOCCOCCOCCOCCNC(=O)CN1CCN(CC(=O)O)CCN(CC(=O)O)CCN(CC(=O)O)CC1)C(C)C)C(=O)N[C@@H](CC(N)=O)C(=O)O [^68Ga-TM5, metal not drawn] ({DOTA-PEG4}-NDVIN-OH)
tissue uptake at 1 h (in vivo [2]; % ID/g Bone): 0.22 %ID/g
tissue uptake at 1 h (in vivo [2]; % ID/g Brain): 0.25 %ID/g
tissue uptake at 1 h (in vivo [2]; % ID/g Heart): 0.45 %ID/g
tissue uptake at 1 h (in vivo [2]; % ID/g Intestine): 0.57 %ID/g
tissue uptake at 1 h (in vivo [2]; % ID/g Kidney): 7.4 %ID/g
tissue uptake at 1 h (in vivo [2]; % ID/g Liver): 0.5 %ID/g
tissue uptake at 1 h (in vivo [2]; % ID/g Lung): 0.24 %ID/g
tissue uptake at 1 h (in vivo [2]; % ID/g Muscle): 0.21 %ID/g
tissue uptake at 1 h (in vivo [2]; % ID/g Tumor): 1.1 %ID/g

CC[C@H](C)[C@H](NC(=O)[C@@H](NC(=O)[C@H](CC(=O)O)NC(=O)[C@H](CC(N)=O)NC(=O)COCCNC(=O)CN1CCN(CC(=O)O)CCN(CC(=O)O)CCN(CC(=O)O)CC1)C(C)C)C(=O)N[C@@H](CC(N)=O)C(=O)O [^68Ga-TM13, metal not drawn] ({DOTA-AEA}-NDVIN-OH)
tissue uptake at 1 h (in vivo [1]; % ID/g Bladder): 7.3 %ID/g
tissue uptake at 1 h (in vivo [1]; % ID/g Bone): 0.05 %ID/g
tissue uptake at 1 h (in vivo [1]; % ID/g Brain): 0.09 %ID/g
tissue uptake at 1 h (in vivo [1]; % ID/g Heart): 0.11 %ID/g
tissue uptake at 1 h (in vivo [1]; % ID/g Intestine): 0.2 %ID/g
tissue uptake at 1 h (in vivo [1]; % ID/g Kidney): 1.6 %ID/g
tissue uptake at 1 h (in vivo [1]; % ID/g Liver): 0.16 %ID/g
tissue uptake at 1 h (in vivo [1]; % ID/g Lung): 0.08 %ID/g
tissue uptake at 1 h (in vivo [1]; % ID/g Muscle): 0.05 %ID/g
tissue uptake at 1 h (in vivo [1]; % ID/g Tumor): 0.2 %ID/g
tissue uptake at 1 h (in vivo [2]; % ID/g Bone): 0.13 %ID/g
tissue uptake at 1 h (in vivo [2]; % ID/g Brain): 0.2 %ID/g
tissue uptake at 1 h (in vivo [2]; % ID/g Heart): 0.49 %ID/g
tissue uptake at 1 h (in vivo [2]; % ID/g Intestine): 0.6 %ID/g
tissue uptake at 1 h (in vivo [2]; % ID/g Kidney): 3.9 %ID/g
tissue uptake at 1 h (in vivo [2]; % ID/g Liver): 0.5 %ID/g
tissue uptake at 1 h (in vivo [2]; % ID/g Lung): 0.32 %ID/g
tissue uptake at 1 h (in vivo [2]; % ID/g Muscle): 0.23 %ID/g
tissue uptake at 1 h (in vivo [2]; % ID/g Tumor): 0.97 %ID/g
tissue uptake at 1 h (in vivo [3]; % ID/g Bladder): 15.6 %ID/g
tissue uptake at 1 h (in vivo [3]; % ID/g Bone): 0.08 %ID/g
tissue uptake at 1 h (in vivo [3]; % ID/g Brain): 0.09 %ID/g
tissue uptake at 1 h (in vivo [3]; % ID/g Heart): 0.17 %ID/g
tissue uptake at 1 h (in vivo [3]; % ID/g Intestine): 0.85 %ID/g
tissue uptake at 1 h (in vivo [3]; % ID/g Kidney): 1.4 %ID/g
tissue uptake at 1 h (in vivo [3]; % ID/g Liver): 0.3 %ID/g
tissue uptake at 1 h (in vivo [3]; % ID/g Lung): 0.12 %ID/g
tissue uptake at 1 h (in vivo [3]; % ID/g Muscle): 0.08 %ID/g
tissue uptake at 1 h (in vivo [3]; % ID/g Tumor): 0.49 %ID/g

CC[C@H](C)[C@H](NC(=O)[C@@H](NC(=O)[C@H](CC(=O)O)NC(=O)[C@H](CC(N)=O)NC(=O)[C@H](CC(=O)O)NC(=O)CNC(=O)[C@H](CCCNC(=N)N)NC(=O)CN1CCN(CC(=O)O)CCN(CC(=O)O)CCN(CC(=O)O)CC1)C(C)C)C(=O)N[C@@H](CC(N)=O)C(=O)O [TM6] ({DOTA}-RGDNDVIN-OH)
Kd (integrin α5β1): 239 nM
